The source made the active and inactive calls.
How the values were obtained:
ORF 73 = ORF 73 (Human herpesvirus 8, UniProt O40947); assay: inhibitors of C-LANA binding to LBS DNA, dose response, biochemical, fluorescence polarization, cherry-picked samples (AID 504725); parameters: species or system Human gammaherpesvirus 8;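 further: fluorescence polarization of a labeled DNA duplex reporting LANA DNA binding; potency is for inhibitors that block LANA binding to the DNA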
[1] = target: T1, Rac GTPase-activating protein 1 (Homo sapiens, UniProt Q9H0H5); assay: MgcRacGAP GTPase-activating activity inhibitors, confirmation, biochemical, ADP Hunter fluorescence, primary and confirmatory (AID 624330); format: functional
T1 sequence (Q9H0H5 whole entry): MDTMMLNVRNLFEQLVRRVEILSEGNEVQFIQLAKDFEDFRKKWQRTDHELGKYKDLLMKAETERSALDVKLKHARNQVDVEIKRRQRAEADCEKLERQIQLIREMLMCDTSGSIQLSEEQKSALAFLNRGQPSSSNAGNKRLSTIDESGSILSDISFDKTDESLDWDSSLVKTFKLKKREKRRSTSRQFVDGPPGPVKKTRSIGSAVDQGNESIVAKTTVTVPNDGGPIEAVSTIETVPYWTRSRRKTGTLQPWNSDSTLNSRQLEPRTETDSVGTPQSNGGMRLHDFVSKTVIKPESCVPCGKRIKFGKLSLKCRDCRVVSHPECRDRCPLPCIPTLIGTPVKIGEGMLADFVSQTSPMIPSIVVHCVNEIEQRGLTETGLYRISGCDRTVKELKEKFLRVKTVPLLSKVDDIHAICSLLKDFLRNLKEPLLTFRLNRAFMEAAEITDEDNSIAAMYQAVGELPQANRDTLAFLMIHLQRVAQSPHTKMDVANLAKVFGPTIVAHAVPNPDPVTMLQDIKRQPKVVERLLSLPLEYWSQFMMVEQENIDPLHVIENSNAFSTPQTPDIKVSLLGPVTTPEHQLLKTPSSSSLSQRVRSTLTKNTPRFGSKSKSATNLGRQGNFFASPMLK

[2] = Counterscreen for activators of the function of SWI/SNF related, matrix associated, actin dependent regulator of chromatin, subfamily a, member 2 (SMARCA2, BRM): Luminescence-based cell-based high throughput dose response assay to identify non-selective compounds using the VP16 reporter assay.; format: functional
[3] = target: Tyrosyl-DNA phosphodiesterase 2 (Homo sapiens, UniProt O95551); assay: human TDP2 enzyme inhibitors, dose response, biochemical, epi absorbance, IC50 (AID 743297)
HeLa = assay: HeLa cell cytotoxicity, dose response, cytotoxicity control, 24 h, cherry-picked samples (AID 504726); format: functional, cell-based; details: Homo sapiens;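 further: potency for cytotoxicity as loss of luminescence signal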
[4] = target: T2, Histone-lysine N-methyltransferase NSD2 (Homo sapiens, UniProt O96028); format: biochemical
T2 sequence (O96028 whole entry): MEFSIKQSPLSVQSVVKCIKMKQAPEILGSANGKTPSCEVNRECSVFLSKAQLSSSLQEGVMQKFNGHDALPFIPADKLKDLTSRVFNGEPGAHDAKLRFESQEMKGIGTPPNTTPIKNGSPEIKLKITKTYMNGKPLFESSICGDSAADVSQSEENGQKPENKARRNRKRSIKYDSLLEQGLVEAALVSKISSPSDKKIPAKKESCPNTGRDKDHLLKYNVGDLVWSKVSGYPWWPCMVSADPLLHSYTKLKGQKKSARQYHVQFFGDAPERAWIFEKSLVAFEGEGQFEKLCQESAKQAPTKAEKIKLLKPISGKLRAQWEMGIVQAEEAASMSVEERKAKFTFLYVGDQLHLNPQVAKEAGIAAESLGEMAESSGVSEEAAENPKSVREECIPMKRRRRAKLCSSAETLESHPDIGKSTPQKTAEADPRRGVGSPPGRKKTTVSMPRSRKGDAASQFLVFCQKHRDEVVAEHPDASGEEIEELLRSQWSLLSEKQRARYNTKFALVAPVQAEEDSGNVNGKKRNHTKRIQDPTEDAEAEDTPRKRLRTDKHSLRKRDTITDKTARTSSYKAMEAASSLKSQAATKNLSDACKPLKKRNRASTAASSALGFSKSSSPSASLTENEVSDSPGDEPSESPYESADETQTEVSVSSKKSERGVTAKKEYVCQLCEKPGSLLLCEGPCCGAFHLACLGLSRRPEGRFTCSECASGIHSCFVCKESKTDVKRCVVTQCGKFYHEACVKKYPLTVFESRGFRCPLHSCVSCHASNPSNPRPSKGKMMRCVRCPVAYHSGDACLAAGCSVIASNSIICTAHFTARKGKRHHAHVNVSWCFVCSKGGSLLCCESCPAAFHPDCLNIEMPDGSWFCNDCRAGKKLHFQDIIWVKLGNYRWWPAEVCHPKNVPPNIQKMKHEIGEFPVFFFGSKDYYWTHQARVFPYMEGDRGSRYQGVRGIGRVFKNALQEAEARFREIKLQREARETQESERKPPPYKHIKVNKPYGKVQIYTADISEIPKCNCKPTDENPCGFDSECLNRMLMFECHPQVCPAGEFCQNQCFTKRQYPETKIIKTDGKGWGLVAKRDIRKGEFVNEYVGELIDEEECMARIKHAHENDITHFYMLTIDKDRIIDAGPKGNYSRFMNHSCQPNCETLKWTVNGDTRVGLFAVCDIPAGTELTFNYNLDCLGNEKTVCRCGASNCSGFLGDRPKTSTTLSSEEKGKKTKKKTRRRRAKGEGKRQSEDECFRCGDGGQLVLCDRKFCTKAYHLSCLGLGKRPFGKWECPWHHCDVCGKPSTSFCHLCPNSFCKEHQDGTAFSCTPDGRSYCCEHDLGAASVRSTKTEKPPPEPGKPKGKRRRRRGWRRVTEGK

[5] = target: Dual specificity tyrosine-phosphorylation-regulated kinase 1A (Rattus norvegicus, UniProt Q63470); format: biochemical, Homo sapiens
[6] = HeLa cell cytotoxicity, dose response, cytotoxicity control for MgcRacGAP inhibitor project (AID 624300); format: functional
[7] = target: SWI/SNF-related matrix-associated actin-dependent regulator of chromatin subfamily A member 2 (Homo sapiens, UniProt P51531); assay: Luminescence-based cell-based high throughput dose response assay to identify activators of the function of SWI/SNF related, matrix associated, actin dependent regulator of chromatin, subfamily a, member 2 (SMARCA2, BRM).; format: functional
[8] = HEp-2 cell cytotoxicity, dose response, cytotoxicity control for RSV inhibitor project, HTS (AID 2410); format: functional; details: human respiratory syncytial virus
Major prion protein = Major prion protein (Homo sapiens, UniProt P04156); format: functional, cell-based
[9] = target: T3, Calpain-2 catalytic subunit (Sus scrofa, UniProt P43367); assay: pig calpain II inhibitor potency, dose response, biochemical, fluorogenic peptide substrate (AID 1420); format: functional
T3 sequence (P43367 whole entry): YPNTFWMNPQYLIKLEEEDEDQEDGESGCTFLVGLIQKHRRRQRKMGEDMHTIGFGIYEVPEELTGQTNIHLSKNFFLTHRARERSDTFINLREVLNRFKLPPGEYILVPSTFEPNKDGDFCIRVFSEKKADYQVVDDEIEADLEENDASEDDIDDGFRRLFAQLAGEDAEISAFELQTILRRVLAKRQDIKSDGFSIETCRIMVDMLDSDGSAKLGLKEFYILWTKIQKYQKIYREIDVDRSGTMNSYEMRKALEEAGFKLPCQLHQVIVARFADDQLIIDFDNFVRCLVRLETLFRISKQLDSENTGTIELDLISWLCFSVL

[10] = test system: Streptococcus sp. 'group A'; assay: growth inhibition of control SK(-) GAS strain, dose response, counter-screen for streptokinase expression inhibitor project, luminescence, kanamycin, BacTiterGlo, confirmation (AID 1900); format: functional, organism-based
Streptokinase A = target: T4, Streptokinase A (Streptococcus pyogenes serotype M1, UniProt P10520); assay: S. pyogenes streptokinase expression inhibitors, potency, dose response, plasminogen activation absorbance, OD405 (AID 1914); format: functional, Streptococcus pyogenes M1 GAS;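 further: secreted streptokinase activity via plasminogen activation per viability signal from cell pellet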
T4 sequence (P10520 whole entry): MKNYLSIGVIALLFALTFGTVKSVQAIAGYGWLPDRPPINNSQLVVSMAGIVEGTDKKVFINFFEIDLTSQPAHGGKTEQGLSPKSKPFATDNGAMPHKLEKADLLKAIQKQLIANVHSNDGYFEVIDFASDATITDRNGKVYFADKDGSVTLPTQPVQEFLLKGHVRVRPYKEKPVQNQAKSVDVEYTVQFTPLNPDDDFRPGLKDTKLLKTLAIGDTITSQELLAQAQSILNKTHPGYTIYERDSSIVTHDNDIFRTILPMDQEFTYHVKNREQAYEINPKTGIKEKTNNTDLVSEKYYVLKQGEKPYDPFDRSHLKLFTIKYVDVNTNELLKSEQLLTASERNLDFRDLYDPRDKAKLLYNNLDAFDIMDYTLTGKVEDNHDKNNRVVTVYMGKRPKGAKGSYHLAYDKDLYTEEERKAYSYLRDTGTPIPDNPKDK

Streptococcus = assay: Group A Streptococcus viability loss, dose response, counter-screen for streptokinase expression inhibitor project, luminescence, BacTiterGlo (AID 1915); format: functional, organism-based;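 further: potency for reduction of bacterial viability or growth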
[11] = PAX2 cell-based inhibition, dose response, selectivity assay for PAX8 inhibitor project, plate reader, dry powder samples (AID 743048); format: functional;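 further: HEK293 cells carrying a WT1 promoter luciferase reporter driven by expressed Pax2; potency is for inhibition of Pax2 driven reporter signal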
[12] = cytotoxicity in OV-90 ovarian cancer cells, dose response, PAX8 inhibitor project, cell-based, plate reader, dry powder, SA8 (AID 743149); format: functional
[13] = PAX5 activity inhibitors, dose response, selectivity assay for PAX8 inhibitor project, cell-based, plate reader, dry powder samples (AID 743047); format: functional;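 further: HEK293 cells carrying a Pax5 driven CD19 promoter luciferase reporter; potency of inhibitors that lower reporter luminescence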
[14] = target: Protein disulfide-isomerase (Homo sapiens, UniProt P07237); assay: PDI inhibitors, insulin turbidity readout, confirmation, biochemical, dry powder samples, set 2 (AID 652146)

With `CCN(CC)CCCNc1ccc2ncn3c4ccc(O)cc4c(=O)c1c23` the AC50 (ORF 73) was 2.05 µM (active), the IC50 [1] was 56.4 µM (active) and the EC50 [2] was > 91.2 µM (inactive). The IC50 [3] was > 128 µM (inactive), the AC50 (HeLa) was > 350 µM (inactive) and the AC50 [4] was 12.7 µM (active). For the same compound, the AC50 [5] was 2.77 µM (active), the CC50 [6] was 89.3 µM (active) and the EC50 [7] was 20.5 µM (inactive).
For `Cc1nc(-c2ccc(S(=O)(=O)Nc3ccc(Br)cc3Cl)s2)cs1`, the CC50 [8] was 16.6 µM (active), the IC50 (Major prion protein) was 12.5 µM (inactive) and the IC50 [9] was 12.2 µM (active). For the same compound, the EC50 [10] was 3.04 µM (active), the EC50 (Streptokinase A) was 3.98 µM (active) and the EC50 (Streptococcus) was 11.9 µM (active). For the same compound, the IC50 (cells) was > 138 µM (inactive).
With `COc1cccc(C#Cc2ccc([C@@H]3[C@@H](C#N)N(C(=O)C4CCCC4)[C@@H]3CO)cc2)c1` the AC50 [11] was 31.6 µM (active), the AC50 [12] was > 70 µM (inactive) and the AC50 [13] was 30.7 µM (active).
With `C=CCOc1ccc(CN2CCC(CCOc3ccccc3)(C(=O)O)CC2)cc1Cl` the AC50 [14] was 20 µM (active).

From ChEMBL document CHEMBL1201862, “PubChem BioAssay data set” (2004)
